According to patent US20240174727A1, “LONG-ACTING NATRIURETIC PEPTIDES AND USES THEREOF” (Eli Lilly and Company, priority 2022, published 2024):
Read-outs that look alike come from different tables or passages of the source. Numbered stars: 1 amine (or outer) side, 2 acyl side, 3 side chain; on linkers, the order of the positions; unused ones are H or OH. Bridge positions count the residues as written; N and C are the ends. Square brackets hold non-standard residues; d marks the D form. Peptide text beside a SMILES is read from it. * marks the point of attachment. PEG24 = NCCOCCOCCOCCOCCOCCOCCOCCOCCOCCOCCOCCOCCOCCOCCOCCOCCOCCOCCOCCOCCOCCOCCOCCOCCC(=O)O; C20 diacid = O=C(O)CCCCCCCCCCCCCCCCCCC(=O)*; γGlu = O=C(O)[C@H](CCC(=O)[*:2])N[*:1]; 4Pal = N[C@@H](Cc1ccncc1)C(=O)O; Dap = NC[C@H](N)C(=O)O; CH2 = C([*:1])[*:2]; βAla = NCCC(=O)O

Molecular target: T1, rat NPRA (Rattus norvegicus, UniProt P18910)
T1 construct: Full-Length cDNA Cloning and Generation of Cell Lines Overexpressing Natriuretic Peptide Receptors (NPRs); expressed in transfected cells; host or cells: Jump-in T-Rex HEK293 cells, pJTI R4 CMV-TO MCS pA vector, tetracycline induction
T1 sequence (P18910 29-1057): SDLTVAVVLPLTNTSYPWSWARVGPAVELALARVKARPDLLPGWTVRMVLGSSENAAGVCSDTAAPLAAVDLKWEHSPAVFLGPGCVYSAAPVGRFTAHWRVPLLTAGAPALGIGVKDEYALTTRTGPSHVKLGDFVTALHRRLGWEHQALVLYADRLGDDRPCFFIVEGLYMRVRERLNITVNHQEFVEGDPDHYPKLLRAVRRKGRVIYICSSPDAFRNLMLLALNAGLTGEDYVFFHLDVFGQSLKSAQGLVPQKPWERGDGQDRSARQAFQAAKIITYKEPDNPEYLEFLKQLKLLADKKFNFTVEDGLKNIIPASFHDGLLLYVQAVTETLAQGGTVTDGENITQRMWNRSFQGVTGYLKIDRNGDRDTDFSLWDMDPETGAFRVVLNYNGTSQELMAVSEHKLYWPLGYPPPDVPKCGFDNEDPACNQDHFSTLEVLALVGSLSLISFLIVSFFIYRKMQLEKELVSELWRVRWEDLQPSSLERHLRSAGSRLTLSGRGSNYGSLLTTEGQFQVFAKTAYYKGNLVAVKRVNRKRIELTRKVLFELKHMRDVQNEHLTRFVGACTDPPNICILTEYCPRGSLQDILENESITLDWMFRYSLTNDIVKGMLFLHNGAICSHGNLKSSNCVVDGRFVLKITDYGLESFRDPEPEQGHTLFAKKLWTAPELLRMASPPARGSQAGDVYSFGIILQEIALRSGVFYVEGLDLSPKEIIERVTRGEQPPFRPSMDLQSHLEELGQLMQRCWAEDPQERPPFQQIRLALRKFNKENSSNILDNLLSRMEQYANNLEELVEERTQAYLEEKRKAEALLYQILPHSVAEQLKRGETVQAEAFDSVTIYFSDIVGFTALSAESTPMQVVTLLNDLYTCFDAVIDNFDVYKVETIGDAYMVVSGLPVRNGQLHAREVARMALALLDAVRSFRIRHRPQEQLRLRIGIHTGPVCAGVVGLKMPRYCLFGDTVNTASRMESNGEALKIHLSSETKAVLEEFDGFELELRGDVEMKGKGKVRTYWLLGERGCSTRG
Assay: Rat NPRA cGMP activity assay (HTRF) in HEK293 cells overexpressing NPRA
Assay type: cell-based
In short: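 cGMP measured by HTRF and scaled between buffer (minimum) and 100 nM amidated rat ANP (maximum). Polypeptides in 10-fold steps from 10 μM to 1 pM, 0.5% DMSO, 0.5 mM IBMX, 40 min at room temperature, on induced NPRA-overexpressing HEK293 cells.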

[1] = assay buffer with 0.1% casein, read-out: cGMP Assay (EC50, pM) w/Casein rNPRA
[2] = cGMP Assay (EC50, pM) w/Casein rNPRA, assay buffer with 0.1% casein
[3] = assay buffer with 0.1% BSA, read-out: cGMP Assay (EC50, pM) w/BSA rNPRA
[4] = cGMP Assay (EC50, pM) w/BSA rNPRA, assay buffer with 0.1% BSA

Compound | EC50 [1] [pM] | EC50 [2] [pM] | EC50 [3] [pM] | EC50 [4] [pM]
CC[C@H](C)[C@@H]1NC(=O)[C@H](CCCNC(=N)N)NC(=O)[C@H](CC(=O)O)NC(=O)[C@H]([C@@H](C)CC)NC(=O)[C@H](CCCNC(=N)N)NC(=O)CNC(=O)CNC(=O)[C@H](Cc2ccccc2)NC(=O)[C@@H](NC(=O)[C@H](CO)NC(=O)[C@H](CO)NC(=O)[C@H](CCCNC(=N)N)NC(=O)[C@H](CCCNC(=N)N)NC(=O)[C@H](Cc2ccncc2)NC(=O)[C@H](CO)NC(=O)COCCOCCNC(=O)COCCOCCNC(=O)COCCOCCNC(=O)COCCOCCNC(=O)COCCOCCNC(=O)COCCOCCNC(=O)CNC(=O)[C@H](CCCCN)NC(=O)[C@H](CCC(=O)O)NC(=O)[C@H](CCCCN)NC(=O)[C@H](CCC(=O)O)NC(=O)[C@H](CCCCN)NC(=O)[C@H](CCC(=O)O)NC(=O)CC[C@H](NC(=O)CCCCCCCCCCCCCCCCCCC(=O)O)C(=O)O)CSCSC[C@@H](C(=O)N2CCC[C@H]2C(=O)N[C@@H](CO)C(=O)N[C@@H](Cc2ccccc2)C(=O)N[C@@H](CCCNC(=N)N)C(=O)N[C@@H](Cc2c[nH]cn2)C(=O)NCC(=O)NCC(=O)N[C@@H](CCCCN)C(=O)N[C@@H](CO)C(=O)N[C@@H](CO)C(=O)NCC(=O)N[C@@H](C)C(=O)N2CCC[C@H]2C(=O)N2CCC[C@H]2C(=O)N2CCC[C@H]2C(=O)N[C@@H](CO)C(N)=O)NC(=O)CNC(=O)[C@H](CC(C)C)NC(=O)CNC(=O)[C@H](CO)NC(=O)[C@H](CCC(N)=O)NC(=O)[C@H](Cc2c[nH]cn2)NC(=O)CNC1=O [Example 86] | 17900 | – | – | –
{C20 diacid-γGlu}-EKEKEKGS[4Pal]RRSSCFGGRIGRIGHQSGLGCPSFRHGGPSSGAPPPS-NH2 (disulfide 14-30) [Example 29] | – | 16800 | – | –
{C20 diacid-γGlu}-EKEKEKGEKPRSSCFG[Dap]RIDRIGHQSGLGCPSFRHGSPSSGAPPPS-NH2 (linker 14-30 via CH2) [Example 137] | 76900 | – | 2.19e+06 | –
CC[C@H](C)[C@@H]1NC(=O)[C@H](CCCNC(=N)N)NC(=O)[C@H](CC(=O)O)NC(=O)[C@H]([C@@H](C)CC)NC(=O)[C@H](CCCNC(=N)N)NC(=O)[C@H](CCCCN)NC(=O)CNC(=O)[C@H](Cc2ccccc2)NC(=O)[C@@H](NC(=O)[C@H](CO)NC(=O)[C@H](CO)NC(=O)[C@H](CCCNC(=N)N)NC(=O)CCNC(=O)[C@H](CCCCN)NC(=O)[C@H](CCC(=O)O)NC(=O)COCCOCCNC(=O)COCCOCCNC(=O)COCCOCCNC(=O)COCCOCCNC(=O)COCCOCCNC(=O)COCCOCCNC(=O)CNC(=O)[C@H](CCCCN)NC(=O)[C@H](CCC(=O)O)NC(=O)[C@H](CCCCN)NC(=O)[C@H](CCC(=O)O)NC(=O)[C@H](CCCCN)NC(=O)[C@H](CCC(=O)O)NC(=O)CC[C@H](NC(=O)CCCCCCCCCCCCCCCCCCC(=O)O)C(=O)O)CSCSC[C@@H](C(=O)N2CCC[C@H]2C(=O)N[C@@H](CO)C(=O)N[C@@H](Cc2ccccc2)C(=O)N[C@@H](CCCNC(=N)N)C(=O)N[C@@H](Cc2c[nH]cn2)C(=O)NCC(=O)NCC(=O)N[C@@H](CCCCN)C(=O)N[C@@H](CO)C(=O)N[C@@H](CO)C(=O)NCC(=O)N[C@@H](C)C(=O)N2CCC[C@H]2C(=O)N2CCC[C@H]2C(=O)N2CCC[C@H]2C(=O)N[C@@H](CO)C(N)=O)NC(=O)CNC(=O)[C@H](CC(C)C)NC(=O)CNC(=O)[C@H](CO)NC(=O)[C@H](CCC(N)=O)NC(=O)[C@H](Cc2c[nH]cn2)NC(=O)CNC1=O [Example 89] | 13800 | – | – | –
CC[C@H](C)[C@@H]1NC(=O)[C@H](CCCNC(=N)N)NC(=O)[C@H](CC(=O)O)NC(=O)[C@H]([C@@H](C)CC)NC(=O)[C@H](CCCNC(=N)N)NC(=O)[C@H](CCCCN)NC(=O)CNC(=O)[C@H](Cc2ccccc2)NC(=O)[C@@H](NC(=O)[C@H](CO)NC(=O)[C@H](CO)NC(=O)[C@H](CCCNC(=N)N)NC(=O)CCNC(=O)[C@H](CCCCN)NC(=O)[C@H](CCC(=O)O)NC(=O)CCOCCOCCOCCOCCOCCOCCOCCOCCOCCOCCOCCOCCOCCOCCOCCOCCOCCOCCOCCOCCOCCOCCOCCOCCNC(=O)CNC(=O)[C@H](CCCCN)NC(=O)[C@H](CCC(=O)O)NC(=O)[C@H](CCCCN)NC(=O)[C@H](CCC(=O)O)NC(=O)[C@H](CCCCN)NC(=O)[C@H](CCC(=O)O)NC(=O)CC[C@H](NC(=O)CCCCCCCCCCCCCCCCCCC(=O)O)C(=O)O)CSCSC[C@@H](C(=O)N2CCC[C@H]2C(=O)N[C@@H](CO)C(=O)N[C@@H](Cc2ccccc2)C(=O)N[C@@H](CCCNC(=N)N)C(=O)N[C@@H](Cc2c[nH]cn2)C(=O)NCC(=O)NCC(=O)N2CCC[C@H]2C(N)=O)NC(=O)CNC(=O)[C@H](CC(C)C)NC(=O)CNC(=O)[C@H](CO)NC(=O)[C@H](CCC(N)=O)NC(=O)[C@H](Cc2c[nH]cn2)NC(=O)CNC1=O [Example 130] ({C20 diacid-γGlu}-EKEKEKG[PEG24]EK[βAla]RSSCFGKRIDRIGHQSGLGCPSFRHGGP-NH2; linker 15-31 via CH2) | 9170 | – | 197000 | –
{C20 diacid-γGlu}-EKEKEKG[PEG24]S[4Pal]RRSSCFGGRIDRIGHQSGLGCPSFRHGGPSSGAPPPS-NH2 (linker 15-31 via CH2) [Example 61] | – | – | – | 463000
{C20 diacid-γGlu}-EKEKEKGEKPRSSCFG[Dap]RIDRIGHYSGLGCPSFRHGSPSSGAPPPS-NH2 (linker 14-30 via CH2) [Example 136] | 32900 | – | 2.43e+06 | –
CC[C@H](C)[C@@H]1NC(=O)[C@H](CCCNC(=N)N)NC(=O)[C@H](CC(=O)O)NC(=O)[C@H]([C@@H](C)CC)NC(=O)[C@H](CCCNC(=N)N)NC(=O)CNC(=O)CNC(=O)[C@H](Cc2ccccc2)NC(=O)[C@@H](NC(=O)[C@H](CO)NC(=O)[C@H](CO)NC(=O)[C@H](CCCNC(=N)N)NC(=O)CCNC(=O)[C@H](CCCCN)NC(=O)[C@H](CCC(=O)O)NC(=O)CNC(=O)[C@H](CCCCN)NC(=O)[C@H](CCC(=O)O)NC(=O)[C@H](CCCCN)NC(=O)[C@H](CCC(=O)O)NC(=O)[C@H](CCCCN)NC(=O)[C@H](CCC(=O)O)NC(=O)CC[C@H](NC(=O)CCCCCCCCCCCCCCCCCCC(=O)O)C(=O)O)CSCSC[C@@H](C(=O)N2CCC[C@H]2C(=O)N[C@@H](CO)C(=O)N[C@@H](Cc2ccccc2)C(=O)N[C@@H](CCCNC(=N)N)C(=O)N[C@@H](Cc2c[nH]cn2)C(=O)NCC(=O)NCC(=O)N2CCC[C@H]2C(=O)N[C@@H](CO)C(=O)N[C@@H](CO)C(=O)NCC(=O)N[C@@H](C)C(=O)N2CCC[C@H]2C(=O)N2CCC[C@H]2C(=O)N2CCC[C@H]2C(=O)N[C@@H](CO)C(N)=O)NC(=O)CNC(=O)[C@H](CC(C)C)NC(=O)CNC(=O)[C@H](CO)NC(=O)[C@H](Cc2ccc(O)cc2)NC(=O)[C@H](Cc2c[nH]cn2)NC(=O)CNC1=O [Example 56] | – | 11200 | – | 1.38e+06
CC[C@H](C)[C@@H]1NC(=O)[C@H](CCCNC(=N)N)NC(=O)[C@H](CC(=O)O)NC(=O)[C@H]([C@@H](C)CC)NC(=O)[C@H](CCCNC(=N)N)NC(=O)CNC(=O)CNC(=O)[C@H](Cc2ccccc2)NC(=O)[C@@H](NC(=O)[C@H](CO)NC(=O)[C@H](CO)NC(=O)[C@H](CCCNC(=N)N)NC(=O)CCNC(=O)[C@H](CCC(=O)O)NC(=O)[C@H](CCCCN)NC(=O)CNC(=O)[C@H](CCCCN)NC(=O)[C@H](CCC(=O)O)NC(=O)[C@H](CCCCN)NC(=O)[C@H](CCC(=O)O)NC(=O)[C@H](CCCCN)NC(=O)[C@H](CCC(=O)O)NC(=O)CC[C@H](NC(=O)CCCCCCCCCCCCCCCCCCC(=O)O)C(=O)O)CSCSC[C@@H](C(=O)N2CCC[C@H]2C(=O)N[C@@H](CO)C(=O)N[C@@H](Cc2ccccc2)C(=O)N[C@@H](CCCNC(=N)N)C(=O)N[C@@H](Cc2c[nH]cn2)C(=O)NCC(=O)NCC(=O)N2CCC[C@H]2C(=O)N[C@@H](CO)C(=O)N[C@@H](CO)C(=O)NCC(=O)N[C@@H](C)C(=O)N2CCC[C@H]2C(=O)N2CCC[C@H]2C(=O)N2CCC[C@H]2C(=O)N[C@@H](CO)C(N)=O)NC(=O)CNC(=O)[C@H](CC(C)C)NC(=O)CNC(=O)[C@H](CO)NC(=O)[C@H](Cc2ccc(O)cc2)NC(=O)[C@H](Cc2c[nH]cn2)NC(=O)CNC1=O [Example 58] | – | – | – | 1.38e+06
